For 21 compounds, IC50 results are on record in patent US9981916B2 (Genentech, Inc., priority 2013, dated 2018).

pIC50: −log10 of the molar value.

In the test the target is T1, RORc ligand binding domain (Homo sapiens, UniProt P51449).
T1 construct: host or cells: E. coli
T1 sequence (P51449 269-508 limits assumed): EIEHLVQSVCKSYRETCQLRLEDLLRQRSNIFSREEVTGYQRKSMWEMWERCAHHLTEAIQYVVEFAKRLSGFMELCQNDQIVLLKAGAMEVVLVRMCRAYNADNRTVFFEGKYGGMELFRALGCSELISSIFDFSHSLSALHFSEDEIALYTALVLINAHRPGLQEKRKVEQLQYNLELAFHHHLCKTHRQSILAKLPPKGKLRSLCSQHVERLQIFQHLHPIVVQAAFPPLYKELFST
The test can be described thus: In vitro RORc ligand binding assay (25-[3H]hydroxycholesterol displacement, filter binding). Conditions: 6 nM 25-[3H]hydroxycholesterol, 0.6 ug/mL RORc receptor, 3 h at 25° C. In a few lines:
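Compounds in 5% DMSO, either dose-response or screened at 1 and 10 uM, competed with 6 nM 25-[3H]hydroxycholesterol for 0.6 ug/mL RORc over 3 h at 25° C (HEPES pH 7.4, NaCl, MgCl2, DTT, BSA buffer). Bound tracer was filter-harvested and counted; nonspecific binding came from 1 uM 25-hydroxycholesterol.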
As to `CC1(C)[C@@H]2CC[C@@]1(C(=O)N1C[C@@H]3C[C@H]1CN3S(C)(=O)=O)c1nnc(-c3c(F)cccc3F)cc12` [Example 241, ((5S,8S)-3-(2,6-difluorophenyl)-9,9-dimethyl-5,6,7,8-tetrahydro-5,8-methanocinnolin-8-yl)((1S,4S)-5-(methylsulfonyl)-2,5-diazabicyclo[2.2.1]heptan-2-yl)methanone], the negative logarithm of the IC50 (pIC50) (usually the IC50 on a negative log10 scale, so that one unit is a factor of ten) is 6.49.

In the case of `CN(C)[C@@H]1CCN(C(=O)[C@]23CC[C@H](c4cc(-c5c(F)cccc5F)nnc42)C3(C)C)C1` [Example 242, ((5S,8S)-3-(2,6-difluorophenyl)-9,9-dimethyl-5,6,7,8-tetrahydro-5,8-methanocinnolin-8-yl) ((R)-3-(dimethylamino)pyrrolidin-1-yl)methanone], the pIC50 is 6.15. Compared with the last compound, the pIC50 is 0.34 log units lower.

`CNC(=O)C1CCCN1C(=O)[C@]12CC[C@H](c3cc(-c4c(F)cccc4F)nnc31)C2(C)C` (stereo partly drawn) [Example 243, 1-((5S,8S)-3-(2,6-difluorophenyl)-9,9-dimethyl-5,6,7,8-tetrahydro-5,8-methanocinnoline-8-carbonyl)-N-methylpyrrolidine-2-carboxamide] had a pIC50 of 5.53.

Compound `CNC(=O)C1CCN(C(=O)[C@]23CC[C@H](c4cc(-c5c(F)cccc5F)nnc42)C3(C)C)C1` (stereo partly drawn) [Example 244, 1-((5S,8S)-3-(2,6-difluorophenyl)-9,9-dimethyl-5,6,7,8-tetrahydro-5,8-methanocinnoline-8-carbonyl)-N-methylpyrrolidine-3-carboxamide] gave a negative logarithm of the IC50 (pIC50) of 6.04. This pIC50 is 0.51 log units higher than that of the compound before.

Compound `CC1(C)[C@@H]2CC[C@@]1(C(=O)N1CCC(C#N)C1)c1nnc(-c3c(F)cccc3F)cc12` (stereo partly drawn) [Example 245, 1-((5S,8S)-3-(2,6-difluorophenyl)-9,9-dimethyl-5,6,7,8-tetrahydro-5,8-methanocinnoline-8-carbonyl)pyrrolidine-3-carbonitrile] showed a negative logarithm of the IC50 (pIC50) of 6.90.

In turn, `COC[C@@H]1CCCN1C(=O)[C@]12CC[C@H](c3cc(-c4c(F)cccc4F)nnc31)C2(C)C` [Example 246, ((5S,8S)-3-(2,6-difluorophenyl)-9,9-dimethyl-5,6,7,8-tetrahydro-5,8-methanocinnolin-8-yl)((S)-2-(methoxymethyl)pyrrolidin-1-yl)methanone] showed a negative-log IC50 (pIC50) of 5.55.

`CC1(C)[C@@H]2CC[C@@]1(C(=O)N1C3CCC1CC3)c1nnc(-c3c(F)cccc3F)cc12` [Example 247, 7-azabicyclo[2.2.1]heptan-7-yl((5S,8S)-3-(2,6-difluorophenyl)-9,9-dimethyl-5,6,7,8-tetrahydro-5,8-methanocinnolin-8-yl)methanone] gave a pIC50 of 5.95.

Compound `CC1(C)[C@@H]2CC[C@@]1(C(=O)N1CCC(C(N)=O)C1)c1nnc(-c3c(F)cccc3F)cc12` (stereo partly drawn) [Example 249, 1-((5S,8S)-3-(2,6-difluorophenyl)-9,9-dimethyl-5,6,7,8-tetrahydro-5,8-methanocinnoline-8-carbonyl)pyrrolidine-3-carboxamide] showed a negative-log IC50 (pIC50) of 5.51.

Compound `CC1(C)[C@@H]2CC[C@@]1(C(=O)N1CCC[C@H]1C(N)=O)c1nnc(-c3c(F)cccc3F)cc12` [Example 250, (S)-1-((5S,8S)-3-(2,6-difluorophenyl)-9,9-dimethyl-5,6,7,8-tetrahydro-5,8-methanocinnoline-8-carbonyl)pyrrolidine-2-carboxamide] had a pIC50 of 5.51.

Compound `Cn1ncnc1[C@@]12CC[C@@H](c3cc(-c4c(F)cccc4F)nnc31)C2(C)C` [Example 251, (5R,8R)-3-(2,6-difluorophenyl)-9,9-dimethyl-8-(1-methyl-1H-1,2,4-triazol-5-yl)-5,6,7,8-tetrahydro-5,8-methanocinnoline] had a pIC50 of 6.21.

`CC1(C)[C@@H]2CC[C@@]1(N1CCNC1=O)c1nnc(-c3c(F)cccc3F)cc12` [Example 252, 1-((5S,8S)-3-(2,6-difluorophenyl)-9,9-dimethyl-5,6,7,8-tetrahydro-5,8-methanocinnolin-8-yl)imidazolidin-2-one]: the negative-log IC50 (pIC50) is 5.80.

Turning to `CC1(C)[C@@H]2CC[C@@]1(N1CCCC1=O)c1nnc(-c3c(F)cccc3F)cc12` [Example 253, 1-((5S,8S)-3-(2,6-difluorophenyl)-9,9-dimethyl-5,6,7,8-tetrahydro-5,8-methanocinnolin-8-yl)pyrrolidin-2-one], the negative logarithm of the IC50 (pIC50) was 6.02.

Turning to `CC1(C)[C@@H]2CC[C@@]1(N1CCOC1=O)c1nnc(-c3c(F)cccc3F)cc12` [Example 254, 3-((5S,8S)-3-(2,6-difluorophenyl)-9,9-dimethyl-5,6,7,8-tetrahydro-5,8-methanocinnolin-8-yl)oxazolidin-2-one], the pIC50 was 6.06.

`CC1(C)[C@H]2CC[C@]1(c1nnc(N)o1)c1nnc(-c3c(F)cccc3F)cc12` [Example 255, 5-((5R,8R)-3-(2,6-difluorophenyl)-9,9-dimethyl-5,6,7,8-tetrahydro-5,8-methanocinnolin-8-yl)-1,3,4-oxadiazol-2-amine] showed a pIC50 of 6.09.

`CC(C)(C)OC(=O)N[C@]12CC[C@H](c3cc(-c4c(F)cccc4F)nnc31)C2(C)C` [Example 256, tert-butyl ((5S,8S)-3-(2,6-difluorophenyl)-9,9-dimethyl-5,6,7,8-tetrahydro-5,8-methanocinnolin-8-yl)carbamate] gave a pIC50 of 5.63.

In the case of `CC1(C)[C@H]2CC[C@]1(N1CCOC1=O)c1nnc(-c3c(F)cccc3F)cc12` [Example 257, 3-((5R,8R)-3-(2,6-difluorophenyl)-9,9-dimethyl-5,6,7,8-tetrahydro-5,8-methanocinnolin-8-yl)oxazolidin-2-one], the negative-log IC50 (pIC50) was 6.36.

As for `CN(CCC#N)C(=O)[C@]12CC[C@H](c3cc(-c4c(F)cccc4F)nnc31)C2(C)C` [Example 258, (5S,8S)-N-(2-cyanoethyl)-3-(2,6-difluorophenyl)-N,9,9-trimethyl-5,6,7,8-tetrahydro-5,8-methanocinnoline-8-carboxamide], the pIC50 is 5.95.

Compound `CC1(C)[C@@H]2CC[C@@]1(C(=O)N1CC(C#N)C1)c1nnc(-c3c(F)cccc3F)cc12` [Example 259, 1-((5S,8S)-3-(2,6-difluorophenyl)-9,9-dimethyl-5,6,7,8-tetrahydro-5,8-methanocinnoline-8-carbonyl)azetidine-3-carbnitrite] showed a negative logarithm of the IC50 (pIC50) of 6.46.

For `Cc1nnc(N(CCN(C)C)C[C@@]23CC[C@@H](c4cc(-c5c(F)cccc5F)nnc42)C3(C)C)o1` [Example 260, N1-(((5R,8S)-3-(2,6-difluorophenyl)-9,9-dimethyl-5,6,7,8-tetrahydro-5,8-methanocinnolin-8-yl)methyl)-N2,N2-dimethyl-N1-(5-methyl-1,3,4-oxadiazol-2-yl)ethane-1,2-diamine], the pIC50 is 5.47.

The compound `CC1(C)[C@@H]2CC[C@@]1(C(=O)N1C3CCC1CC(O)C3)c1nnc(-c3c(F)cccc3F)cc12` (stereo partly drawn) [Example 261, ((5S,8S)-3-(2,6-difluorophenyl)-9,9-dimethyl-5,6,7,8-tetrahydro-5,8-methanocinnolin-8-yl)(3-hydroxy-8-azabicyclo[3.2.1]octan-8-yl)methanone] gave a negative-log IC50 (pIC50) of 5.94.

Turning to `CC1(C)[C@@H]2CC[C@@]1(C(=O)N1CCC(CCO)C1)c1nnc(-c3c(F)cccc3F)cc12` (stereo partly drawn) [Example 262, ((5S,8S)-3-(2,6-difluorophenyl)-9,9-dimethyl-5,6,7,8-tetrahydro-5,8-methanocinnolin-8-yl)(3-(2-hydroxyethyl)pyrrolidin-1-yl)methanone], the negative-log IC50 (pIC50) was 6.50.
